Patent US20230119360A1, “PHARMACEUTICAL COMBINATION OF A THERAPEUTIC OLIGONUCLEOTIDE TARGETING HBV AND A TLR7 AGONIST FOR TREATMENT OF HBV” (priority 2019, published 2023)

Tests used:
[1] = tested on: HBV; assay: AAV-HBV mouse model, single dose siRNA vs ASO: serum HBsAg; assay type: in vivo, C57BL/6 mice; conditions: 6.6 mg/kg single subcutaneous injection Day 0
Experimental: The purpose of this study was to evaluate the in vivo pharmacology and efficacy of certain compounds in AAV-HBV mouse model.
Recombinant adeno-associated virus (AAV) carrying the Hepatitis B Virus (HBV) genome rAAV8-1.3HBV ayw (Lot No: 2019032703) was purchased from Beijing FivePlus Molecular Medicine Institute, and stored at −70° C. before use.
One hundred and fifteen (115) male C57BL/6 mice were obtained. On Pre-dose Day 0, all the animals were subjected to injection through tail vein with 1×10^11 vector genome of AAV-HBV for model induction. Based on baseline serum viral markers and body weight on Pre-dose Day 24, 80 qualified HBV-infected mice were selected.
The 80 selected mice were randomized into 4 groups for compound treatment. Sterile water, DCR-AUD1, DCR-5219 (9 mg/kg), and CMP ID NO: 15_1 (6.6 mg/kg) were subcutaneously injected once at 5 mL/kg on Day 0. The dosing volume was […].
Whole blood was collected to prepare serum (15 μL per mouse) twice weekly during Day 0˜21. On Day 21, the mice were euthanized. […]
Baseline serum levels of HBsAg were determined by ARCHITECT i2000 (Abbott Laboratories, Lake Bluff, IL, USA) and supporting reagents. Baseline serum HBV DNA level was measured by using ABI7500 (Applied Biosystems, Foster City, Calif., USA) and detection kit (Sansure Biotech Inc., Changsha, Hunan, China).

[2] = tested on: HBV; assay: AAV/HBV mouse model: HBV-DNA levels in serum (qPCR); assay type: in vivo, C57BL/6 mice
Description: (§1) The AAV-HBV mouse model is generated by injecting C57BL/6 mice with recombinant adeno-associated virus harboring a replicable HBV genome (AAV-HBV). The rAAV8-1.3 HBV ayw virus stock was purchased from Beijing FivePlus Molecular Medicine Institute (Beijing, China).
The animals (male, aged 4-5 weeks upon arrival) were purchased from SLAC Laboratory Animal Co. Ltd (Shanghai, China), acclimatized in the animal facility for 5-7 days, and then injected with 1×10^11 vector genome of AAV-HBV (diluted in 200 μL of PBS) through the tail vein. Persistence expression of HBV genome can be established after three weeks, with high levels of HBV viral markers including HBV DNA, HBsAg, and HBeAg in mouse serum. […]
Quantification of extracted HBV DNA was performed using a Taqman qPCR machine (ViiA7, life technologies). […] DNA copy numbers were calculated from Ct values based on a HBV plasmid DNA standard curve by the ViiA7 software.
To evaluate the combination of the anti-HBV ASO and the TLR7 agonist in an in vivo system, a mouse model of chronic HBV infection was used. […] The effect on these viral markers upon treatment with the anti-HBV ASO of CMP ID NO: 15_1 (table 2, and FIG. 4) dosed at 1.5 mg/kg or 7.5 mg/kg and the TLR7 agonist of CMP ID NO: VI (table 3) dosed with […] every other day (QOD) or once weekly (QW) in monotherapy or in combination has been evaluated.

[3] = tested on: HBV; assay: AAV/HBV mouse model: HBsAg levels in serum (CLIA); assay type: in vivo, C57BL/6 mice; set-up: HBsAg levels in serum, Average ± SD: unit not given here; conditions: for HBsAg levels in serum, Average ± SD: AAV/HBV mice, anti-HBV ASO 7.5 mg/kg weekly, TLR7 100 mg/kg weekly (QW)
Description: as §1
The animals (male, aged 4-5 weeks upon arrival) were purchased from SLAC Laboratory Animal Co. Ltd (Shanghai, China), acclimatized in the animal facility for 5-7 days, and then injected with 1×10^11 vector genome of AAV-HBV (diluted in 200 μL of PBS) through the tail vein. Persistence expression of HBV genome can be established after three weeks, with high levels of HBV viral markers including HBV DNA, HBsAg, and HBeAg in mouse serum. With stable HBV viremia and competent immune system of the C57BL/6 mice, the AAV-HBV mouse model was used to evaluate the in vivo anti-HBV efficacy of the compounds. The in-life part of the AAV-HBV study was conducted through contracted service at Covance Pharmaceutical Research and Development (Shanghai) Co. Ltd. (Covance Shanghai) and the post-life analysis using the serum was performed internally at Roche Innovation Center Shanghai (RICS).
Seven days before compound treatment, blood samples were collected for serum preparation (˜15 μL), and based on HBV DNA, HBsAg levels in serum and body weight, the AAV-HBV infected animals were stratified into the different treatment groups.
Saline (Group 01) and anti-HBV ASO of CMP ID NO: 15_1 at 1.5 or 7.5 mg/kg were dosed sub subcutaneously once a week during Day 0-49 on Days 0, 7, 14, 21, 28, 35, 42 and 49. TLR7 agonist of CMP ID NO: VI 100 mg/kg was administered by oral gavage once every other day during Day 0-55 (QOD) or once weekly during Day 0-49 on Days 0, 7, 14, 21, 28, 35, 42 and 49 (QW). The animals were weekly bled via retro-orbital sinus for sample collection throughout the study. • Oligonucleotide Synthesis
Serum HBsAg levels were determined in the serum of infected AAV-HBV mouse using the HBsAg chemoluminescence immunoassay (CLIA) (Autobio diagnostics Co. Ltd., Zhengzhou, China, Cat. no.CL0310-2), according to the manufacturer's protocol. Briefly, 50μl of serum was transferred to the antibody coated microtiter plate and 50 μl of enzyme conjugate reagent was added. The plate was incubated for 60 min on a shaker at room temperature before all wells were washed six times with washing buffer using an automatic washer. 25 μl of substrate A and then 25 μl of substrate B was added to each well. The plate was incubated for 10 min at RT before luminescence was measured using an Envision luminescence reader (Perkin Elmer). HBsAg is given in the unit IU/ml; where 1 ng HBsAg=1.14 IU.
To evaluate the combination of the anti-HBV ASO and the TLR7 agonist in an in vivo system, a mouse model of chronic HBV infection was used. In the AAV/HBV mouse model described in the Materials and Method a persistent HBV infection is established resulting in expression of viral markers (HBsAg, HBeAg, HBV DNA) detectable in plasma. The effect on these viral markers upon treatment with the anti-HBV ASO of CMP ID NO: 15_1 (table 2, and FIG. 4) dosed at 1.5 mg/kg or 7.5 mg/kg and the TLR7 agonist of CMP ID NO: VI (table 3) dosed with […] every other day (QOD) or once weekly (QW) in monotherapy or in combination has been evaluated.

[4] = tested on: HBV; assay: Entecavir combination study in HBV-expressing mouse (HDI model); assay type: in vivo; conditions: HDI mice; monotherapy
Experimental: The RNAi oligonucleotides targeting the S antigen impact both the viral polymerase and HBsAg protein. In this study, the combinational effects of HBV(s)-219P2 as a monotherapy and combinational treatment with entecavir was explored in an HBV-expressing mouse (HDI model) for antiviral activity.
Mice were administered daily oral dosing of 500 ng/kg Entecavir (ETV) for 14 days. A single subcutaneous administration of HBV(s)-219P2 took place. Circulating viral load (HBV DNA) was measured by qPCR (FIG. 25A), plasma HBsAg level was measured by ELISA (FIG. 25B), and liver HBV mRNA and pgRNA levels were measured by qPCR.

[5] = tested on: HBsAg
Experimental: Preclinical potency was further evaluated in mice following a QW×3 dosing regimen in which HBV-254 was subcutaneously administered at 3 mg/kg (FIG. 23). The administration points are indicated by arrows in the figure. HBsAg levels were monitored in both oligonucleotide treated and untreated control mice for a period spanning 147 days.
Each oligonucleotide, including HBV-254, was evaluated at three concentrations (1, 10, and 100 pM) in HeLa cells using the fluorescence-based reporter assay.

5′-GN2-C6ocoaoGs^mCsGstsasasasgsasgsasGsG-3′ [CMP ID NO: 15_1]
time until which decrease in HBsAg was maintained before rebound [1]: about 10 days
HBsAg level over time ([1]; 21 days): rapid decrease in HBsAg level
reduction in HBV-DNA ([2]; monotherapy at both 1.5 mg/kg and 7.5 mg/kg): rapid reduction in HBV-DNA to below the lower level of quantification
HBsAg levels in serum, Average ± SD ([3]; D 0): 4.30 ± 0.30
HBsAg levels in serum, Average ± SD ([3]; D 7): 1.71 ± 0.24
HBsAg levels in serum, Average ± SD ([3]; D 14): 1.83 ± 0.21
HBsAg levels in serum, Average ± SD ([3]; D 21): 1.43 ± 0.17
HBsAg levels in serum, Average ± SD ([3]; D 28): 1.30 ± 0.19
HBsAg levels in serum, Average ± SD ([3]; D 35): 1.36 ± 0.26
HBsAg levels in serum, Average ± SD ([3]; D 42): 1.30 ± 0.16
HBsAg levels in serum, Average ± SD ([3]; D 49): 1.56 ± 0.16
HBsAg levels in serum, Average ± SD ([3]; D 56): 1.32 ± 0.24
HBsAg levels in serum, Average ± SD ([3]; D 63): 1.33 ± 0.47
HBsAg levels in serum, Average ± SD ([3]; D 70): 2.18 ± 0.91
HBsAg levels in serum, Average ± SD ([3]; D 77): 2.70 ± 0.85
HBsAg levels in serum, Average ± SD ([3]; D 84): 3.17 ± 0.60
HBsAg levels in serum, Average ± SD ([3]; D 91): 3.82 ± 0.38
HBsAg levels in serum, Average ± SD ([3]; D 98): 3.64 ± 0.81
HBsAg levels in serum, Average ± SD ([3]; D 105): 3.61 ± 0.97
HBsAg levels in serum, Average ± SD ([3]; D 111): 3.40 ± 1.49
suppression of HBsAg below the detection limit ([3]; anti-HBV ASO 1.5 mg/kg monotherapy): not capable of suppressing HBsAg to a level below the detection limit

CC[C@H](OC(C)=O)[C@@H]1C[C@@H](O)[C@H](n2c(=O)sc3cnc(N)nc32)O1 [CMP ID NO: VI, [(1S)-1-[(2S,4R,5R)-5-(5-amino-2-oxo-thiazolo[4,5-d]pyrimidin-3-yl)-4-hydroxy-tetrahydrofuran-2-yl]propyl] acetate]
HBV DNA rebound, distance from control group during follow-up ([2]; TLR7 agonist monotherapy, QOD or QW): ≤ 1 log
day of lowest HBsAg ([3]; TLR7 agonist alone (FIG. 10A)): 42 days

C=C1[C@H](CO)[C@@H](O)C[C@@H]1n1cnc2c(=O)[nH]c(N)nc21 [entecavir, Entecavir]
circulating HBsAg [4]: No significant decrease
hepatic viral RNAs [4]: No significant decrease

HBV-254: HBsAg-targeting duplex oligonucleotide, sense SEQ ID NO: 55, antisense SEQ ID NO: 56 (sense GUGGUGGACUUCUCUCAAUAGCAGCCGAAAGGCUGC; antisense UAUUGAGAGAAGUCCACCACGG; chemistry not given here)
HBsAg levels ([5]; HDI-mice, single subcutaneous dose, increasing dosage): systematically reduced HBsAg levels in mice with increasing dosage
HBsAg levels relative to control ([5]; mice, QW×3, 3 mg/kg subcutaneous, monitored 147 days): Diminished HBsAg levels persisted in treated mice throughout the entirety of the study
